Results: patent US20110245316A1, “PREVENTION OR DELAY OF ONSET OF ORAL MUCOSITIS” (SCICLONE PHARMACEUTICALS, INC., priority 2010, published 2011)
Entries after “also recorded” stand apart in the source; their conditions may differ.

System: oral mucositis in patients receiving chemoradiation for head and neck cancer
Assay: Phase 2 randomized, double-blind, placebo-controlled trial: onset of oral mucositis (WHO OM Scale) in patients receiving CT/RT
Format: in vivo, human
Conditions: for gastrostomy tube placement and use / unplanned office and emergency room visits: higher dose (0.1 mg/kg); for severe OM, percent of patients: subcutaneous 0.1 mg/kg (HD)
Description: OM is a painful, debilitating, and costly toxicity of different chemoradiotherapy (CT/RT) regimens used to treat head and neck cancer. This trial is a phase 2, randomized, double-blind, dose-ranging, placebo-controlled three-arm study in patients receiving CT/RT for the treatment of head and neck cancer, to assess the safety and tolerability of γ-D-glutamyl-L-tryptophan (SCV-07) as well as its efficacy in delaying the onset of severe OM as assessed by the WHO Oral Mucositis Scale.
The WHO OM Scale is the standard, validated instrument used in clinical trials to measure OM: Grade 0=none; Grade 1=erythema and soreness, no ulcers; Grade 2=ulcers, able to eat a solid diet; Grade 3=ulcers; requires a liquid diet; Grade 4=ulcers, not able to tolerate a solid or liquid diet, requires IV or tube feeding.
59 eligible patients with recently diagnosed, treatment naïve, pathologically-confirmed, non-metastatic squamous cell carcinoma of the oral cavity, oropharynx, hypopharynx or larynx were enrolled and treated with a concomitant regimen of CT/RT consisting of a continuous course of external beam irradiation (IMRT eligible) with a minimum cumulative dose of 50 Gray (Gy) and cisplatin monotherapy administered using standard weekly or tri-weekly dosing regimens (80-100 mg/m^2 administered on Days 0, 21 and 42) or weekly (30-40 mg/m^2). At least two ‘at risk’ intraoral sites were included in the radiation fields and received a cumulative RT dose of at least 50 Gy. Subjects were equally randomized to receive either placebo or one of two doses of γ-D-glutamyl-L-tryptophan (0.02 or 0.1 mg/kg) on each radiation day for up to 7 weeks.
Tables 2-7 summarize the statistics for the Full Analysis Set “FAS” (57 subjects), and the completer population (52 subjects), with respect to delay of onset of severe oral mucositis. Also see FIGS. 1 and 2.
SCV-07 efficacy, dosing and scheduling parameters were assessed in hamster models of acute, fractionated and concomitant chemoradiation (CRT). […] A multicenter, prospective, blinded, randomized trial evaluated SCV-07's ability to alter OM in CRT-treated HNC patients (n=57). Cytokine and gene microarray analyses were performed for samples obtained before and on the last radiation day.

[1] = 0.10 mg/kg, Completer Population
[2] = 0.10 mg/kg, Completer Population, at 30-<35 Gy
[3] = 0.10 mg/kg, Completer Population, at 35-<40 Gy
[4] = 0.10 mg/kg, Completer Population, at 40-<45 Gy
[5] = 0.10 mg/kg, Completer Population, at 45-<50 Gy
[6] = 0.10 mg/kg, Completer Population, at 50-<55 Gy
[7] = 0.10 mg/kg, Completer Population, at 55-<60 Gy
[8] = 0.10 mg/kg, Completer Population, at 65-<70 Gy
[9] = 0.10 mg/kg, Completer Population, at ≧70 Gy
[10] = listed as γ-D-glutamyl-L-tryptophan, 0.1 mg/kg

## N[C@H](CCC(=O)N[C@@H](Cc1c[nH]c2ccccc12)C(=O)O)C(=O)O [SCV-07, γ-D-glutamyl-L-tryptophan]
[1]
  Cumulative Dose of RT (Gy) at Initial Onset of Ulcerative OM, Median: 26 Gy
  Cumulative Dose of RT (Gy) at Initial Onset of Ulcerative OM, Min: 8 Gy
  Cumulative Dose of Radiation (Gy) Prior to Initial Occurrence of Severe OM (Delay to Onset of Severe OM), K-M Estimate, Mean (SE): 56 (3.8) Gy
  Cumulative Dose of Radiation (Gy) Prior to Initial Occurrence of Severe OM, K-M Estimate, Median (95% CI): 57 (51, NA) Gy
  Cumulative Dose of Radiation (Gy) Prior to Initial Occurrence of Ulcerative OM (Delay to Onset of Ulcerative OM), K-M Estimate, Mean (SE): 30 (3.7) Gy
  Cumulative Dose of Radiation (Gy) Prior to Initial Occurrence of Ulcerative OM, K-M Estimate, 25%-75%: 19-46 Gy
  Cumulative Dose of Radiation (Gy) Prior to Initial Occurrence of Ulcerative OM, K-M Estimate, Median (95% CI): 26 (19, 41) Gy
  Time (Days) to Initial Occurrence of Sever OM, K-M Estimate, Mean (SE): 38 (2.5) Days
  Time (Days) to Initial Occurrence of Sever OM, K-M Estimate, Median (95% CI): 43 (33, NA) Days
  Time (Days) to Initial Occurrence of Ulcerative OM, K-M Estimate, 25%-7%: 12 to 32 days
  Time (Days) to Initial Occurrence of Ulcerative OM, K-M Estimate, Mean (SE): 20 (2.7) Days
  Time (Days) to Initial Occurrence of Ulcerative OM, K-M Estimate, Median (95% CI): 16 (13, 31) Days
0.10 mg/kg, Completer Population, FIG. 3
  delay to onset of ulcerative OM (WHO score >1) as a function of cumulative radiation dose: showed a delay to onset of OM
0.10 mg/kg, Completer Population, at 5-<10 Gy
  Cum. Percent of Subjects with Ulcerative OM (WHO > 1): 6% (1%, 37%)
0.10 mg/kg, Completer Population, at 10-<15 Gy
  Cum. Percent of Subjects with Ulcerative OM (WHO > 1): 6% (1%, 37%)
0.10 mg/kg, Completer Population, at 15-<20 Gy
  Cum. Percent of Subjects with Ulcerative OM (WHO > 1): 38% (19%, 65%)
0.10 mg/kg, Completer Population, at 20-<25 Gy
  Cum. Percent of Subjects with Ulcerative OM (WHO > 1): 50% (29%, 75%)
0.10 mg/kg, Completer Population, at 25-<30 Gy
  Cum. Percent of Subjects with Ulcerative OM (WHO > 1): 63% (40%, 85%)
[2]
  Cum. Percent of Subjects with Severe OM (WHO > 2): 13% (3%, 41%)
  Cum. Percent of Subjects with Ulcerative OM (WHO > 1): 69% (46%, 89%)
[3]
  Cum. Percent of Subjects with Severe OM (WHO > 2): 13% (3%, 41%)
  Cum. Percent of Subjects with Ulcerative OM (WHO > 1): 69% (46%, 89%)
[4]
  Cum. Percent of Subjects with Severe OM (WHO > 2): 19% (6%, 48%)
  Cum. Percent of Subjects with Ulcerative OM (WHO > 1): 75% (53%, 92%)
[5]
  Cum. Percent of Subjects with Severe OM (WHO > 2): 25% (10%, 54%)
  Cum. Percent of Subjects with Ulcerative OM (WHO > 1): 75% (53%, 92%)
[6]
  Cum. Percent of Subjects with Severe OM (WHO > 2): 38% (19%, 65%)
  Cum. Percent of Subjects with Ulcerative OM (WHO > 1): 94% (75%, 100%)
[7]
  Cum. Percent of Subjects with Severe OM (WHO > 2): 56% (34%, 80%)
  Cum. Percent of Subjects with Ulcerative OM (WHO > 1): 94% (75%, 100%)
0.10 mg/kg, Completer Population, at 60-<65 Gy
  Cum. Percent of Subjects with Ulcerative OM (WHO > 1): 94% (75%, 100%)
0.10 mg/kg, Completer Population, at 60->65 Gy
  Cum. Percent of Subjects with Severe OM (WHO > 2): 64% (41%, 86%)
[8]
  Cum. Percent of Subjects with Severe OM (WHO > 2): 73% (48%, 92%)
  Cum. Percent of Subjects with Ulcerative OM (WHO > 1): 94% (75%, 100%)
0.10 mg/kg, Completer Population, at <5 Gy
  Cum. Percent of Subjects with Ulcerative OM (WHO > 1): 0% (0%, 0%)
0.10 mg/kg, Completer Population, at <30 Gy
  Cum. Percent of Subjects with Severe OM (WHO > 2): 6% (1%, 37%)
[9]
  Cum. Percent of Subjects with Severe OM (WHO > 2): 73% (48%, 92%)
  Cum. Percent of Subjects with Ulcerative OM (WHO > 1): 94% (75%, 100%)
0.10 mg/kg, FAS population
  Cumulative Dose of RT (Gy) at Initial Onset of Severe OM, Max: 72 Gy
  Cumulative Dose of RT (Gy) at Initial Onset of Severe OM, Mean (SD): 54 (15.6) Gy
  Cumulative Dose of RT (Gy) at Initial Onset of Severe OM, Median: 56 Gy
  Cumulative Dose of RT (Gy) at Initial Onset of Severe OM, Min: 20 Gy
  Cumulative Dose of Radiation (Gy) Prior to Initial Occurrence of Severe OM (Delay to Onset of Severe OM), K-M Estimate, Mean (SE): 54 (3.9) Gy
  Cumulative Dose of Radiation (Gy) Prior to Initial Occurrence of Severe OM, K-M Estimate, Median (95% CI): 56 (46, 70) Gy
  Time (Days) to Initial Occurrence of Severe OM, K-M Estimate, Mean (SE): 37 (2.7) Days
  Time (Days) to Initial Occurrence of Severe OM, K-M Estimate, Median (95% CI): 40 (32, NA) Days
0.10 mg/kg, FAS population, at 30-<35 Gy
  Cum. Percent of Subjects with Severe OM (WHO > 2): 18% (6%, 45%)
0.10 mg/kg, FAS population, at 35-<40 Gy
  Cum. Percent of Subjects with Severe OM (WHO > 2): 18% (6%, 45%)
0.10 mg/kg, FAS population, at 40-<45 Gy
  Cum. Percent of Subjects with Severe OM (WHO > 2): 24% (10%, 51%)
0.10 mg/kg, FAS population, at 45-<50 Gy
  Cum. Percent of Subjects with Severe OM (WHO > 2): 29% (13%, 57%)
0.10 mg/kg, FAS population, at 50-<55 Gy
  Cum. Percent of Subjects with Severe OM (WHO > 2): 41% (22%, 67%)
0.10 mg/kg, FAS population, at 55-<60 Gy
  Cum. Percent of Subjects with Severe OM (WHO > 2): 59% (37%, 81%)
0.10 mg/kg, FAS population, at 60-<65 Gy
  Cum. Percent of Subjects with Severe OM (WHO > 2): 66% (44%, 87%)
0.10 mg/kg, FAS population, at 65-<70 Gy
  Cum. Percent of Subjects with Severe OM (WHO > 2): 74% (51%, 93%)
0.10 mg/kg, FAS population, at >30 Gy
  Cum. Percent of Subjects with Severe OM (WHO > 2): 6% (1%, 35%)
0.10 mg/kg, FAS population, at ≧70 Gy
  Cum. Percent of Subjects with Severe OM (WHO > 2): 74% (51%, 93%)
0.10 mg/kg, Full Analysis Set, FIG. 1
  delay to onset of severe OM (WHO score >2) as a function of cumulative radiation dose: showed a delay to onset of OM
0.10 mg/kg, patients that completed radiation therapy, FIG. 2
  delay to onset of severe OM (WHO score >2) as a function of cumulative radiation dose: showed a delay to onset of OM
HD (0.1 mg/kg)
  treatment breaks: fewer
HD SCV-07 cohort vs. placebo
  Cox regression analysis of time to UOM initial occurrence, decrease vs. placebo: 52%
SCV-07 high dose
  Number of Days that Patients used the G-Tube: 44 days
SCV-07 high dose (n = 3/20)
  Percent of Patients with G-Tube Placement: 18%
SCV-07 low dose
  Number of Days that Patients used the G-Tube: 57 days
SCV-07 low dose (n = 4/20)
  Percent of Patients with G-Tube Placement: 20%
High dose (0.1 mg/kg) vs placebo, 0.1 mg/kg
  delay to onset of ulcerative OM (WHO scale, grades 2 to 4): more pronounced clinical benefit; also recorded: delayed
High dose (0.1 mg/kg) vs placebo, listed as γ-D-glutamyl-L-tryptophan, 0.1 mg/kg
  delay to onset of ulcerative OM (WHO scale, grades 2 to 4): showed a trend towards delay in onset
High dose vs placebo and low dose
  days of gastrostomy tube use: fewer days
Higher dose (0.1 mg/kg) vs placebo, 0.1 mg/kg
  delay to severe OM (WHO scale, grades 3 and 4), primary endpoint: showed a trend towards delay to severe OM; also recorded: delayed severe OM vs. placebo
Higher dose (0.1 mg/kg) vs placebo, listed as γ-D-glutamyl-L-tryptophan, 0.1 mg/kg
  delay to severe OM (WHO scale, grades 3 and 4), primary endpoint: showed a trend towards delay in onset
0.1 mg/kg
  gastrostomy tube placement and use: fewer G-tubes placed
  unplanned office and emergency room visits: fewer
[10]
  gastrostomy tube placement and use: less reliance on gastrostomy tube placement and use
  unplanned office and emergency room visits: fewer unplanned office and emergency room visits
Low dose (0.02 mg/kg) vs placebo
  delay to onset of ulcerative OM (WHO scale, grades 2 to 4): appeared similar or slightly better than placebo
Low dose (0.02 mg/kg) vs placebo, 0.02 mg/kg
  delay to severe OM (WHO scale, grades 3 and 4), primary endpoint: appeared to do worse than placebo and not
Patients receiving SCV-07 vs placebo
  placement of a gastrostomy feeding tube: less likely to require placement of a gastrostomy feeding tube
At 50 Gy, placebo 42%
  severe OM, percent of patients: 29%
At ≦40Gy, placebo 32%
  severe OM, percent of patients: 18%
